Assay results reported in PubChem BioAssay AID248 (DTP/NCI, 2004).
Where “and” joins values, the source holds several entries; their conditions need not be identical. Equal values may be shown once. Toxic doses and inconclusive results are not listed. Rule as the data show it: active = T/C of 150% or more; inactive = T/C below 125%.

Test system: L1210 leukemia ip in BDF1 mice, survival T/C
Test: NCI In Vivo Anticancer Drug Screen. Data for tumor model L1210 Leukemia (intraperitoneal) in B6D2F1 (BDF1) mice
Settings: endpoint: mean survival time, higher = longer survival
Outline: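 Each compound was tested against a transplantable tumor grown in mice. The endpoint was survival, with treated animals benchmarked against vehicle controls as a simple ratio.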

[1] = dose: 100.0 mg/kg/injection, schedule: Q01DX009 (ip), vehicle: Klucel (hydroxypropylcellulose) (HPC)
[2] = dose: 200.0 mg/kg/injection, schedule: Q01DX009 (ip), vehicle: Klucel (hydroxypropylcellulose) (HPC)
[3] = dose: 400.0 mg/kg/injection, schedule: Q01DX009 (ip), vehicle: Klucel (hydroxypropylcellulose) (HPC)
[4] = dose: 50.0 mg/kg/injection, schedule: Q01DX001 (ip), vehicle: saline
[5] = dose: 100.0 mg/kg/injection, schedule: Q01DX001 (ip), vehicle: saline
[6] = dose: 200.0 mg/kg/injection, schedule: Q01DX001 (ip), vehicle: saline
[7] = dose: 400.0 mg/kg/injection, schedule: Q01DX001 (ip), vehicle: saline
[8] = dose: 100.0 mg/kg/injection, schedule: Q04DX002 (ip), vehicle: Klucel (hydroxypropylcellulose) (HPC)
[9] = dose: 200.0 mg/kg/injection, schedule: Q04DX002 (ip), vehicle: Klucel (hydroxypropylcellulose) (HPC)
[10] = dose: 400.0 mg/kg/injection, schedule: Q04DX002 (ip), vehicle: Klucel (hydroxypropylcellulose) (HPC)
[11] = dose: 100.0 mg/kg/injection, schedule: Q01DX009 (ip), vehicle: saline with Tween-80
[12] = dose: 200.0 mg/kg/injection, schedule: Q01DX009 (ip), vehicle: saline with Tween-80
[13] = dose: 100.0 mg/kg/injection, schedule: Q04DX003 (ip), vehicle: Klucel (hydroxypropylcellulose) (HPC)
[14] = dose: 200.0 mg/kg/injection, schedule: Q04DX003 (ip), vehicle: Klucel (hydroxypropylcellulose) (HPC)
[15] = dose: 400.0 mg/kg/injection, schedule: Q04DX003 (ip), vehicle: Klucel (hydroxypropylcellulose) (HPC)
[16] = dose: 50.0 mg/kg/injection, schedule: Q01DX009 (ip), vehicle: saline
[17] = dose: 100.0 mg/kg/injection, schedule: Q01DX009 (ip), vehicle: saline
[18] = dose: 100.0 mg/kg/injection, schedule: Q04DX002 (ip), vehicle: saline with Tween-80
[19] = dose: 200.0 mg/kg/injection, schedule: Q04DX002 (ip), vehicle: saline with Tween-80
[20] = dose: 400.0 mg/kg/injection, schedule: Q01DX009 (ip), vehicle: saline with Tween-80

Measured: T/C

CC(=O)Nc1ccccc1Cl
inactive: [1] 100 % of control | [2] 105 % of control | [3] 108 % of control

Nc1nc(N)c(-c2ccc(Cl)cc2)c(/C=C/c2ccc([N+](=O)[O-])cc2)n1
inactive: [4] 104 % of control | [5] 93 % of control | [6] 93 % of control | [7] 96 % of control

O=C(O)c1cccc(C(=O)O)n1
inactive: dose: 75.0 mg/kg/injection, schedule: Q01DX001 (ip), vehicle: acetone 98 % of control | dose: 150.0 mg/kg/injection, schedule: Q01DX001 (ip), vehicle: acetone 97 % of control

COc1cc(N(CCCl)CCCl)c(OC)cc1/C=N\Nc1nncn1N
inactive: dose: 1.2 mg/kg/injection, schedule: Q01DX015 (ip), vehicle: carboxymethylcellulose (CMC) 109 % of control | dose: 1.4 mg/kg/injection, schedule: Q01DX015 (ip), vehicle: carboxymethylcellulose (CMC) 105 % of control | dose: 2.2 mg/kg/injection, schedule: Q01DX015 (ip), vehicle: carboxymethylcellulose (CMC) 107 % of control | dose: 2.5 mg/kg/injection, schedule: Q01DX015 (ip), vehicle: carboxymethylcellulose (CMC) 109 % of control | dose: 3.3 mg/kg/injection, schedule: Q01DX015 (ip), vehicle: carboxymethylcellulose (CMC) 110 % of control | dose: 15.0 mg/kg/injection, schedule: Q01DX015 (ip), vehicle: carboxymethylcellulose (CMC) 96 % of control and 103 % of control | dose: 33.0 mg/kg/injection, schedule: Q01DX001 (ip), vehicle: carboxymethylcellulose (CMC) 124 % of control | dose: 100.0 mg/kg/injection, schedule: Q01DX001 (ip), vehicle: carboxymethylcellulose (CMC) 105 % of control

O=C(Nc1ccc2ccccc2c1)C1CC1
inactive: [8] 100 % of control | [9] 107 % of control | [10] 115 % of control

O=C1CCN/C(=N\[N+](=O)[O-])N1
inactive: dose: 100.0 mg/kg/injection, schedule: Q01DX001 (ip), vehicle: saline with Tween-80 101 % of control | dose: 200.0 mg/kg/injection, schedule: Q01DX001 (ip), vehicle: saline with Tween-80 106 % of control

Cc1ccc(NC(=O)ON(C)C)cc1
inactive: dose: 25.0 mg/kg/injection, schedule: Q04DX002 (ip), vehicle: other 99 % of control | dose: 50.0 mg/kg/injection, schedule: Q04DX002 (ip), vehicle: other 96 % of control | dose: 100.0 mg/kg/injection, schedule: Q04DX002 (ip), vehicle: other 92 % of control

CC1CC(C)(C)CC2(C1)OCCCO2 (stereo not drawn)
inactive: dose: 50.0 mg/kg/injection, schedule: Q01DX009 (ip), vehicle: saline with Tween-80 90 % of control | [11] 102 % of control | [12] 98 % of control

CCOC(=O)c1[nH]c(-c2ccccc2)cc1-c1ccccc1
inactive: [13] 118 % of control | [14] 108 % of control | [15] 108 % of control

Nc1nc2nc(N=Nc3ccc(N=Nc4nc5nc(N)[nH]c(=O)c5[nH]4)cc3)[nH]c2c(=O)[nH]1
inactive: [13] 91 % of control | [14] 99 % of control | [15] 88 % of control

CC(N)c1ccccc1 (stereo not drawn) (tested in a mixture with another compound)
inactive: [16] 87 % of control | [17] 90 % of control

Cc1ccc([N+](=O)[O-])cc1NC(=O)Nc1cccc(F)c1
inactive: dose: 6.25 mg/kg/injection, schedule: Q01DX009 (ip), vehicle: Klucel (hydroxypropylcellulose) (HPC) 93 % of control | dose: 12.5 mg/kg/injection, schedule: Q01DX009 (ip), vehicle: Klucel (hydroxypropylcellulose) (HPC) 87 % of control | dose: 25.0 mg/kg/injection, schedule: Q01DX009 (ip), vehicle: Klucel (hydroxypropylcellulose) (HPC) 92 % of control | [3] 86 % of control

COc1ccc(CC2(C#N)c3ccccc3C=CN2C(=O)c2ccccc2)c([N+](=O)[O-])c1OC (stereo not drawn)
inactive: dose: 50.0 mg/kg/injection, schedule: Q04DX002 (ip), vehicle: saline with Tween-80 97 % of control | [18] 87 % of control | [19] 97 % of control

c1ccc2c(c1)C[n+]1ccccc1-2
inactive: dose: 75.0 mg/kg/injection, schedule: Q01DX001 (ip), vehicle: other 102 % of control

O=C(CBr)c1ccccc1
inactive: dose: 10.0 mg/kg/injection, schedule: Q04DX003 (ip), vehicle: saline with Tween-80 93 % of control | dose: 20.0 mg/kg/injection, schedule: Q04DX003 (ip), vehicle: saline with Tween-80 97 % of control

O=C(Cl)C(=O)c1c[nH]c2ccccc12
inactive: [8] 101 % of control | [9] 101 % of control | [10] 95 % of control

C[n+]1ccc(Cl)c2ccc(Cl)cc21
inactive: dose: 10.0 mg/kg/injection, schedule: Q01DX001 (ip), vehicle: saline 100 % of control | dose: 20.0 mg/kg/injection, schedule: Q01DX001 (ip), vehicle: saline 102 % of control | dose: 40.0 mg/kg/injection, schedule: Q01DX001 (ip), vehicle: saline 102 % of control

CCOC(CCl)(OCC)OCC
inactive: [18] 97 % of control | [19] 90 % of control

O=C(O)C(Cl)(Br)C(Cl)c1ccccc1 (stereo not drawn)
inactive: [11] 93 % of control | [12] 91 % of control | [20] 95 % of control

CN(C)c1ccc(N=Nc2ccc(C(C)(C)C)cc2)cc1
inactive: [11] 97 % of control | dose: 100.0 mg/kg/injection, schedule: Q04DX003 (ip), vehicle: saline with Tween-80 95 % of control | [12] 94 % of control | dose: 200.0 mg/kg/injection, schedule: Q04DX003 (ip), vehicle: saline with Tween-80 86 % of control | [20] 89 % of control | dose: 400.0 mg/kg/injection, schedule: Q04DX003 (ip), vehicle: saline with Tween-80 96 % of control

CCOC(=O)CN(C(=O)OCC)C(OCC)OCC
inactive: [11] 95 % of control | [12] 104 % of control | [20] 93 % of control

O=C(O)c1cc(Br)ccc1O
inactive: [8] 98 % of control | [9] 98 % of control | [10] 102 % of control

Cc1cc([N+](=O)[O-])c(N)c([N+](=O)[O-])c1
inactive: [1] 98 % of control | [13] 105 % of control | [2] 92 % of control | [14] 105 % of control | [3] 97 % of control | [15] 105 % of control

CC(C)CC(C)NCC(C)O (stereo not drawn)
inactive: dose: 75.0 mg/kg/injection, schedule: Q01DX001 (ip), vehicle: acid diluted with saline 100 % of control | dose: 150.0 mg/kg/injection, schedule: Q01DX001 (ip), vehicle: acid diluted with saline 100 % of control

N=[N+]=CC(=O)CC(N)C(=O)O (stereo not drawn)
inactive: [4] 94 % of control | [16] 104 % of control | [5] 94 % of control | [17] 107 % of control | dose: 128.0 mg/kg/injection, schedule: Q03HX024 (ip), vehicle: saline 117 % of control | [6] 99 % of control | dose: 200.0 mg/kg/injection, schedule: Q01DX009 (ip), vehicle: saline 113 % of control | dose: 256.0 mg/kg/injection, schedule: Q04DX003 (ip), vehicle: saline 102 % of control | [7] 96 % of control | dose: 512.0 mg/kg/injection, schedule: Q04DX003 (ip), vehicle: saline 105 % of control | dose: 1024.0 mg/kg/injection, schedule: Q04DX003 (ip), vehicle: saline 108 % of control
